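Assay format: 96-well plates, 48-hour exposure. Here, GI50 denotes the concentration required for 50% inhibition of growth.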 Activity calls are given as the source filed them. Rule as the data show it: active = GI50 up to about 1.1 µM and inactive = higher.
Tests used:
Assay in all cases: DTP human tumour cell line panel, 48 h
786-0 = system: 786-0
A498 = system: A498
A549 = system: A549
ACHN = system: ACHN
BT-549 = system: BT-549
CAKI-1 = system: CAKI-1
CCRF-CEM = system: CCRF-CEM
COLO 205 = system: COLO 205
DU-145 = system: DU-145
EKVX = system: EKVX
HCC 2998 = system: HCC 2998
HCT-116 = system: HCT-116
HCT-15 = system: HCT-15
HL-60 = system: HL-60
HOP-62 = system: HOP-62
HOP-92 = system: HOP-92
HT-29 = system: HT-29
Hs-578T = system: Hs-578T
IGROV-1 = system: IGROV-1
K562 = system: K562
KM12 = system: KM12
LOX IMVI = system: LOX IMVI
M14 = system: M14
MCF7 = system: MCF7
MDA-MB-231 = system: MDA-MB-231
MDA-MB-435 = system: MDA-MB-435
MOLT-4 = system: MOLT-4
Malme-3M = system: Malme-3M
NCI-H226 = system: NCI-H226
NCI-H23 = system: NCI-H23
NCI-H460 = system: NCI-H460
NCI-H522 = system: NCI-H522
NCI/ADR-RES = system: NCI/ADR-RES
OVCAR-3 = system: OVCAR-3
OVCAR-4 = system: OVCAR-4
OVCAR-5 = system: OVCAR-5
OVCAR-8 = system: OVCAR-8
PC-3 = system: PC-3
RPMI-8226 = system: RPMI-8226
RXF 393 = system: RXF 393
SF-268 = system: SF-268
SF-295 = system: SF-295
SF-539 = system: SF-539
SK-MEL-28 = system: SK-MEL-28
SK-MEL-2 = system: SK-MEL-2
SK-MEL-5 = system: SK-MEL-5
SK-OV-3 = system: SK-OV-3
SN12C = system: SN12C
SNB-19 = system: SNB-19
SNB-75 = system: SNB-75
SR = system: SR
SW-620 = system: SW-620
T47D = system: T47D
TK-10 = system: TK-10
U-251 = system: U-251
UACC-257 = system: UACC-257
UACC-62 = system: UACC-62
UO-31 = system: UO-31

Nc1ccc(S(=O)(=O)c2ccc(/N=[N+](\[O-])c3ccc(S(=O)(=O)c4ccc(N)cc4)cc3)cc2)cc1
GI50 (786-0): 18.5 µM (inactive) | GI50 (A498): 30.8 µM (inactive) | GI50 (A549): > 100 µM (inactive) | GI50 (ACHN): > 60.5 µM (inactive) | GI50 (BT-549): 27.2 µM (inactive) | GI50 (CAKI-1): 86.9 µM (inactive) | GI50 (CCRF-CEM): > 100 µM (inactive) | GI50 (COLO 205): > 100 µM (inactive) | GI50 (DU-145): 81.7 µM (inactive) | GI50 (EKVX): 50 µM (inactive) | GI50 (HCC 2998): > 100 µM (inactive) | GI50 (HCT-116): 46.5 µM (inactive) | GI50 (HCT-15): > 100 µM | GI50 (HL-60): > 100 µM (inactive) | GI50 (HOP-62): 20.4 µM (inactive) | GI50 (HOP-92): 10.1 µM (inactive) | GI50 (HT-29): > 100 µM (inactive) | GI50 (Hs-578T): 8.39 µM (inactive) | GI50 (IGROV-1): > 92.9 µM (inactive) | GI50 (K562): > 100 µM (inactive) | GI50 (KM12): > 100 µM (inactive) | GI50 (LOX IMVI): > 60.7 µM (inactive) | GI50 (M14): 99.3 µM (inactive) | GI50 (MCF7): > 64.6 µM (inactive) | GI50 (MDA-MB-231): 35.8 µM (inactive) | GI50 (MDA-MB-435): > 100 µM (inactive) | GI50 (MOLT-4): > 100 µM (inactive) | GI50 (Malme-3M): > 56.4 µM (inactive) | GI50 (NCI-H226): 14.6 µM (inactive) | GI50 (NCI-H23): 34.8 µM (inactive) | GI50 (NCI-H460): 66.5 µM (inactive) | GI50 (NCI-H522): 17.9 µM (inactive) | GI50 (NCI/ADR-RES): > 74.3 µM (inactive) | GI50 (OVCAR-3): 31 µM (inactive) | GI50 (OVCAR-4): 19.4 µM (inactive) | GI50 (OVCAR-5): > 100 µM (inactive) | GI50 (OVCAR-8): 41.2 µM (inactive) | GI50 (PC-3): > 55.3 µM (inactive) | GI50 (RPMI-8226): > 100 µM (inactive) | GI50 (RXF 393): 7.66 µM (inactive) | GI50 (SF-268): 15 µM (inactive) | GI50 (SF-295): 22.1 µM (inactive) | GI50 (SF-539): 18.9 µM (inactive) | GI50 (SK-MEL-28): > 80.4 µM (inactive) | GI50 (SK-MEL-2): > 49.1 µM (inactive) | GI50 (SK-MEL-5): 44 µM (inactive) | GI50 (SK-OV-3): 24.9 µM (inactive) | GI50 (SN12C): > 68.9 µM (inactive) | GI50 (SNB-19): 44.4 µM (inactive) | GI50 (SNB-75): 8.02 µM (inactive) | GI50 (SR): > 61.4 µM (inactive) | GI50 (SW-620): > 100 µM (inactive) | GI50 (T47D): > 48 µM (inactive) | GI50 (TK-10): > 44.1 µM (inactive) | GI50 (U-251): 27.7 µM (inactive) | GI50 (UACC-257): > 91.8 µM (inactive) | GI50 (UACC-62): > 50 µM (inactive) | GI50 (UO-31): > 100 µM (inactive)

CON(C(=O)OC(C)(C)C)c1ccccc1
GI50 (786-0): > 100 µM (inactive) | GI50 (A498): > 100 µM (inactive) | GI50 (A549): > 100 µM (inactive) | GI50 (ACHN): > 100 µM (inactive) | GI50 (BT-549): 43.6 µM (inactive) | GI50 (CAKI-1): > 100 µM (inactive) | GI50 (CCRF-CEM): > 100 µM (inactive) | GI50 (COLO 205): > 100 µM (inactive) | GI50 (DU-145): > 100 µM (inactive) | GI50 (EKVX): > 100 µM (inactive) | GI50 (HCC 2998): > 100 µM (inactive) | GI50 (HCT-116): > 100 µM (inactive) | GI50 (HCT-15): > 100 µM | GI50 (HL-60): > 100 µM (inactive) | GI50 (HOP-62): > 100 µM (inactive) | GI50 (HOP-92): > 100 µM (inactive) | GI50 (HT-29): > 100 µM (inactive) | GI50 (Hs-578T): > 100 µM (inactive) | GI50 (IGROV-1): > 100 µM (inactive) | GI50 (K562): > 100 µM (inactive) | GI50 (KM12): > 100 µM (inactive) | GI50 (LOX IMVI): > 100 µM (inactive) | GI50 (M14): > 100 µM (inactive) | GI50 (MDA-MB-231): > 100 µM (inactive) | GI50 (MDA-MB-435): > 100 µM (inactive) | GI50 (MOLT-4): > 100 µM (inactive) | GI50 (Malme-3M): > 100 µM (inactive) | GI50 (NCI-H226): > 100 µM (inactive) | GI50 (NCI-H23): > 100 µM (inactive) | GI50 (NCI-H460): > 100 µM (inactive) | GI50 (NCI-H522): > 100 µM (inactive) | GI50 (NCI/ADR-RES): > 100 µM (inactive) | GI50 (OVCAR-3): > 100 µM (inactive) | GI50 (OVCAR-4): > 100 µM (inactive) | GI50 (OVCAR-5): > 100 µM (inactive) | GI50 (OVCAR-8): > 100 µM (inactive) | GI50 (PC-3): > 100 µM (inactive) | GI50 (RPMI-8226): > 100 µM (inactive) | GI50 (RXF 393): > 100 µM (inactive) | GI50 (SF-268): > 100 µM (inactive) | GI50 (SF-295): > 100 µM (inactive) | GI50 (SK-MEL-28): > 100 µM (inactive) | GI50 (SK-MEL-2): > 100 µM (inactive) | GI50 (SK-MEL-5): > 100 µM (inactive) | GI50 (SK-OV-3): > 100 µM (inactive) | GI50 (SNB-19): > 100 µM (inactive) | GI50 (SNB-75): > 100 µM (inactive) | GI50 (SR): > 100 µM (inactive) | GI50 (SW-620): > 100 µM (inactive) | GI50 (T47D): > 100 µM (inactive) | GI50 (TK-10): > 100 µM (inactive) | GI50 (U-251): > 100 µM (inactive) | GI50 (UACC-257): > 100 µM (inactive) | GI50 (UACC-62): > 100 µM (inactive) | GI50 (UO-31): > 100 µM (inactive)

— ChEMBL document CHEMBL1201862, “PubChem BioAssay data set” (2004)
